In ChEMBL document CHEMBL4602640, “Licochalcone A suppresses the proliferation of sarcoma HT-1080 cells, as a selective R132C mutant IDH1 inhibitor” (Bioorg Med Chem Lett, 2020):
Calls of active or inactive are those of the source. The calls are words filed in the database; no cut-off is given here.

Key:
[1] = biological target: T1, Isocitrate dehydrogenase [NADP] cytoplasmic (Homo sapiens, UniProt O75874); assay: Inhibition of IDH1 (unknown origin) at 30 uM by enzymatic assay
[2] = test system: Isocitrate dehydrogenase [NADP] cytoplasmic (Homo sapiens), O75874 [R132C]; assay: Inhibition of IDH1 R132C mutant (unknown origin) at 30 uM by enzymatic assay
Homo sapiens = organism: Homo sapiens; assay: Ratio of inhibition of IDH1 R132C mutant (unknown origin) at 30 uM to inhibition of IDH1 (unknown origin) at 30 uM by enzymatic assay
[3] = biological target: T1, Isocitrate dehydrogenase [NADP] cytoplasmic; assay: Binding affinity to IDH1 (unknown origin) by surface plasmon resonance assay
[4] = biological target: T2, Isocitrate dehydrogenase [NADP] cytoplasmic (Homo sapiens, UniProt O75874, R132C); assay: Binding affinity to IDH1 R132C mutant (unknown origin) by surface plasmon resonance assay
[5] = biological target: T3, Isocitrate dehydrogenase [NADP] cytoplasmic (Homo sapiens, UniProt O75874, R132H); assay: Binding affinity to IDH1 R132H mutant (unknown origin) by surface plasmon resonance assay
[6] = test system: Isocitrate dehydrogenase [NADP] cytoplasmic (Homo sapiens), O75874 [R132C]; assay: Binding affinity to IDH1 R132C mutant (unknown origin) by mass spectrometry
[7] = test system: Isocitrate dehydrogenase [NADP] cytoplasmic (Homo sapiens), O75874 [R132H]; assay: Binding affinity to IDH1 R132H mutant (unknown origin) by mass spectrometry
[8] = biological target: T1, Isocitrate dehydrogenase [NADP] cytoplasmic; assay: Inhibition of IDH1 (unknown origin) by enzymatic assay
[9] = biological target: T2, Isocitrate dehydrogenase [NADP] cytoplasmic; assay: Inhibition of IDH1 R132C mutant (unknown origin) by enzymatic assay
[10] = biological target: T3, Isocitrate dehydrogenase [NADP] cytoplasmic; assay: Inhibition of IDH1 R132H mutant (unknown origin) by enzymatic assay
HT-1080 [11] = assay: Antiproliferative activity against human HT1080 cells harboring IDH1-R132C mutation incubated for 48 hrs; assay type: functional, cell-based
[12] = Cytotoxicity against human RCTEC incubated for 48 hrs
U-87 MG = assay: Cytotoxicity against human U87MG cells harboring wild type IDH1 incubated for 48 hrs; assay type: functional, cell-based, U-87MG ATCC
HT-1080 [13] = assay: Reduction in 2 HG level in human HT1080 cells harboring IDH1-R132C mutation incubated for 48 hrs by LC-MS analysis relative to control; assay type: functional
HT-1080 [14] = assay: Reduction in CDK1 mRNA level in human HT1080 cells incubated for 48 hrs by qRT-PCR analysis; assay type: functional, cell-based
HT-1080 [15] = assay: Reduction in CDK2 mRNA level in human HT1080 cells incubated for 48 hrs by qRT-PCR analysis; assay type: functional, cell-based
HT-1080 [16] = assay: Reduction in CDK1 protein expression in human HT1080 cells incubated for 48 hrs by Western blot analysis; assay type: functional, cell-based
HT-1080 [17] = assay: Reduction in CDK2 protein expression in human HT1080 cells incubated for 48 hrs by Western blot analysis; assay type: functional, cell-based
HT-1080 [18] = assay: Reduction in ACO1 […] expression in human HT1080 cells by RNA-Seq data analysis; assay type: functional, cell-based
HT-1080 [19] = assay: Reduction in PDHB […] expression in human HT1080 cells by RNA-Seq data analysis; assay type: functional, cell-based
HT-1080 [20] = assay: Induction of cell cycle arrest in human HT1080 cells assessed accumulation at G1 phase at 5 uM incubated for 24 hrs by flow cytometric analysis (reference value: 31.67%); assay type: functional
HT-1080 [21] = assay: Induction of cell cycle arrest in human HT1080 cells assessed accumulation at S phase at 5 uM incubated for 24 hrs by flow cytometric analysis (reference value: 52.69%); assay type: functional
HT-1080 [22] = assay: Induction of cell cycle arrest in human HT1080 cells assessed accumulation at G2 phase at 5 uM incubated for 24 hrs by flow cytometric analysis (reference value: 15.64%); assay type: functional
HT-1080 [23] = assay: Induction of cell cycle arrest in human HT1080 cells assessed accumulation at G1 phase at 10 uM incubated for 24 hrs by flow cytometric analysis (reference value: 31.67%); assay type: functional
HT-1080 [24] = assay: Induction of cell cycle arrest in human HT1080 cells assessed accumulation at S phase at 10 uM incubated for 24 hrs by flow cytometric analysis (reference value: 52.69%); assay type: functional
HT-1080 [25] = assay: Induction of cell cycle arrest in human HT1080 cells assessed accumulation at G2 phase at 10 uM incubated for 24 hrs by flow cytometric analysis (reference value: 15.64%); assay type: functional
HT-1080 [26] = assay: Induction of cell cycle arrest in human HT1080 cells assessed accumulation at G1 phase at 20 uM incubated for 24 hrs by flow cytometric analysis (reference value: 31.67%); assay type: functional
HT-1080 [27] = assay: Induction of cell cycle arrest in human HT1080 cells assessed accumulation at S phase at 20 uM incubated for 24 hrs by flow cytometric analysis (reference value: 52.69%); assay type: functional
HT-1080 [28] = assay: Induction of cell cycle arrest in human HT1080 cells assessed accumulation at G2 phase at 20 uM incubated for 24 hrs by flow cytometric analysis (reference value: 15.64%); assay type: functional
HT-1080 [29] = assay: Induction of apoptosis in human HT1080 cells assessed as viable cells at 5 uM incubated for 48 hrs by flow cytometric analysis (reference value: 95.9%); assay type: functional; settings: HT-1080, 48 h, read-out: Activity
HT-1080 [30] = assay: Induction of apoptosis in human HT1080 cells assessed as early apoptotic cells at 5 uM incubated for 48 hrs by flow cytometric analysis (reference value: 0.63%); assay type: functional
HT-1080 [31] = assay: Induction of apoptosis in human HT1080 cells assessed as late apoptotic cells at 5 uM incubated for 48 hrs by flow cytometric analysis (reference value: 2.48%); assay type: functional
HT-1080 [32] = assay: Induction of apoptosis in human HT1080 cells assessed as necrotic cells at 5 uM incubated for 48 hrs by flow cytometric analysis (reference value: 0.95%); assay type: functional
HT-1080 [33] = assay: Induction of apoptosis in human HT1080 cells assessed as viable cells at 10 uM incubated for 48 hrs by flow cytometric analysis (reference value: 95.9%); assay type: functional; settings: HT-1080, 48 h, read-out: Activity
HT-1080 [34] = assay: Induction of apoptosis in human HT1080 cells assessed as early apoptotic cells at 10 uM incubated for 48 hrs by flow cytometric analysis (reference value: 0.63%); assay type: functional
HT-1080 [35] = assay: Induction of apoptosis in human HT1080 cells assessed as late apoptotic cells at 10 uM incubated for 48 hrs by flow cytometric analysis (reference value: 2.48%); assay type: functional
HT-1080 [36] = assay: Induction of apoptosis in human HT1080 cells assessed as necrotic cells at 10 uM incubated for 48 hrs by flow cytometric analysis (reference value: 0.95%); assay type: functional
HT-1080 [37] = assay: Induction of apoptosis in human HT1080 cells assessed as viable cells at 20 uM incubated for 48 hrs by flow cytometric analysis (reference value: 95.9%); assay type: functional; settings: HT-1080, 48 h, read-out: Activity
HT-1080 [38] = assay: Induction of apoptosis in human HT1080 cells assessed as early apoptotic cells at 20 uM incubated for 48 hrs by flow cytometric analysis (reference value: 0.63%); assay type: functional
HT-1080 [39] = assay: Induction of apoptosis in human HT1080 cells assessed as late apoptotic cells at 20 uM incubated for 48 hrs by flow cytometric analysis (reference value: 2.48%); assay type: functional
HT-1080 [40] = assay: Induction of apoptosis in human HT1080 cells assessed as necrotic cells at 20 uM incubated for 48 hrs by flow cytometric analysis (reference value: 0.95%); assay type: functional
HT-1080 [41] = assay: Induction of cell cycle arrest in human HT1080 cells assessed accumulation at G2 phase incubated for 24 hrs by flow cytometric analysis; assay type: functional, cell-based

T1 sequence (O75874 whole entry): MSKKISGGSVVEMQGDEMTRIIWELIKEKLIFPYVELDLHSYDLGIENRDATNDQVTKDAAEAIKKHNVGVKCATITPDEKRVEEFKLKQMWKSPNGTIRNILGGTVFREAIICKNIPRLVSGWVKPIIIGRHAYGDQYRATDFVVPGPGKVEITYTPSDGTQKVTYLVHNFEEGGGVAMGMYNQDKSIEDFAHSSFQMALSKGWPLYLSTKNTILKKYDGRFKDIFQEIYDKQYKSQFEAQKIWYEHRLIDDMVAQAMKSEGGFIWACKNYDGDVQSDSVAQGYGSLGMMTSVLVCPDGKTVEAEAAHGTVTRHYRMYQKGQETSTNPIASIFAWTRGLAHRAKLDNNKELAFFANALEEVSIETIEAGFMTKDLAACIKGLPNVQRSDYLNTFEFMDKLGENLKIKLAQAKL
T3 sequence (O75874 2-414 R132H limits assumed): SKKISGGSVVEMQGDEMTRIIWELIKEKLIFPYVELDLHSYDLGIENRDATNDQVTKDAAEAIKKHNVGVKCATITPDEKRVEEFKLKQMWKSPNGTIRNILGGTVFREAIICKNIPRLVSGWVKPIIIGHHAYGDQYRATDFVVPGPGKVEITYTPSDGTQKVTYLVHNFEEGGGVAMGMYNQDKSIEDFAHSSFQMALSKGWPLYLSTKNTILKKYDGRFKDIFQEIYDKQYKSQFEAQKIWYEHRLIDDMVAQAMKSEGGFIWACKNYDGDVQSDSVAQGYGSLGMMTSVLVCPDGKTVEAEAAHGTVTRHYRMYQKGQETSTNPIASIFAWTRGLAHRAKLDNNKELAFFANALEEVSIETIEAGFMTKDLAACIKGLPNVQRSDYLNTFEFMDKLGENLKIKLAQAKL
T2 sequence (O75874 2-414 R132C limits assumed): as the sequence (O75874 2-414 R132H limits assumed) above, with H131C counted along it
Isocitrate dehydrogenase [NADP] cytoplasmic (Homo sapiens), O75874 [R132C], sequence (O75874 whole entry R132C): as the sequence (O75874 whole entry) above, with R132C counted along it
Isocitrate dehydrogenase [NADP] cytoplasmic (Homo sapiens), O75874 [R132H], sequence (O75874 whole entry R132H): as the sequence (O75874 whole entry) above, with R132H counted along it

SMILES: C=CC(C)(C)c1cc(/C=C/C(=O)c2ccc(O)cc2)c(OC)cc1O [LICOAGROCHACONE A]
- inhibition [1]: inactive
- inhibition [2]: Active
- Ratio (Homo sapiens): 3
- Kd [3]: > 50 µM
- Kd [4]: 2810 nM
- Kd [5]: 12.8 µM
- Activity [6]: Active
- Activity [7]: inactive
- IC50 [8]: > 100 µM
- IC50 [9]: 5.18 µM
- IC50 [10]: 76.9 µM
- Activity (HT-1080 [11]): Dose-dependent effect
- IC50 (HT-1080 [11]; HT-1080, 48 h): 10.8 µM
- IC50 [12]: > 50 µM
- IC50 (U-87 MG): > 50 µM
- inhibition (HT-1080 [13]): Dose-dependent effect
- inhibition (INH) (HT-1080 [13]): >50%
- inhibition (HT-1080 [14]): Dose-dependent effect
- inhibition (HT-1080 [15]): Dose-dependent effect
- inhibition (HT-1080 [16]): Dose-dependent effect
- inhibition (HT-1080 [17]): Dose-dependent effect
- inhibition (HT-1080 [18]): Dose-dependent effect
- inhibition (HT-1080 [19]): Dose-dependent effect
- Activity (HT-1080 [20]): 35.93%
- Activity (HT-1080 [21]): 43.13%
- Activity (HT-1080 [22]): 20.94%
- Activity (HT-1080 [23]): 21.99%
- Activity (HT-1080 [24]): 45.83%
- Activity (HT-1080 [25]): 24.18%
- Activity (HT-1080 [26]): 24.76%
- Activity (HT-1080 [27]): 41.29%
- Activity (HT-1080 [28]): 33.95%
- viability at 5 µM (HT-1080 [29]): 80.5%
- Activity (HT-1080 [30]): 1.26%
- Activity (HT-1080 [31]): 15.2%
- Activity (HT-1080 [32]): 3.13%
- viability at 10 µM (HT-1080 [33]): 64.1%
- Activity (HT-1080 [34]): 4.97%
- Activity (HT-1080 [35]): 26.6%
- Activity (HT-1080 [36]): 4.4%
- viability at 20 µM (HT-1080 [37]): 42%
- Activity (HT-1080 [38]): 0.82%
- Activity (HT-1080 [39]): 54.4%
- Activity (HT-1080 [40]): 2.79%
- Activity (HT-1080 [41]): Dose-dependent effect
